Consider two molecules from ChEMBL document CHEMBL1121774, “Interaction of 5-ethynyl-2'-deoxyuridylate with thymidylate synthetase” (J Med Chem, 1981).

One experiment addresses T1, Thymidylate synthase (Lactobacillus casei, UniProt P00469).
T1 sequence (P00469 whole entry): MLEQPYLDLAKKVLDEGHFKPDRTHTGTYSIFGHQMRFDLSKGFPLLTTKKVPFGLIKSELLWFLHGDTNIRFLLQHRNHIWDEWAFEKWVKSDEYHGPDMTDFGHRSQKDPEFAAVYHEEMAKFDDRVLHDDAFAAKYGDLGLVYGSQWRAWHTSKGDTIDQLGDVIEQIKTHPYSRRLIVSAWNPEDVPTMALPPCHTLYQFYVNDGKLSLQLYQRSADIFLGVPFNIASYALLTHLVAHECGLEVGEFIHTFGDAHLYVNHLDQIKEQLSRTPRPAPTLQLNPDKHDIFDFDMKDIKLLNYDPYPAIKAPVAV
In words: The compound was tested for inhibition of dTMP synthetase from Lactobacillus casei. On the set-up: species or system Lacticaseibacillus casei.

Experiment [1] has as its target T2, Thymidylate synthase (Lactobacillus casei) (UniProt P00469).
T2 sequence (whole entry): T1 sequence (P00469 whole entry)
As to the kind of experiment: Binding of 0.1 mM [14C]5,10-CH2-H4 folate to 2.5 nmol dTMP synthetase from Lactobacillus casei. The settings on record: Lacticaseibacillus casei.

The molecule `C#Cc1cn([C@H]2C[C@H](O)[C@@H](COP(=O)(O)O)O2)c(=O)[nH]c1=O` returned an inhibition constant Ki on Thymidylate synthase of 2700 nM. The dpm bound to protein in experiment [1] was 1110.
Consider `O=c1[nH]c(=O)n([C@H]2C[C@H](O)[C@@H](COP(=O)(O)O)O2)cc1F`, for which the dpm bound to protein in experiment [1] turned out to be 15500.

One may read the Ki as a dissociation constant, usually derived from enzyme kinetics or from competition with a known ligand. The low end stands for tighter binding, the high end for weaker binding.
